Assay [1] has as its target T1, Substance-K receptor (Oryctolagus cuniculus) (UniProt P79218).
T1 sequence (whole entry): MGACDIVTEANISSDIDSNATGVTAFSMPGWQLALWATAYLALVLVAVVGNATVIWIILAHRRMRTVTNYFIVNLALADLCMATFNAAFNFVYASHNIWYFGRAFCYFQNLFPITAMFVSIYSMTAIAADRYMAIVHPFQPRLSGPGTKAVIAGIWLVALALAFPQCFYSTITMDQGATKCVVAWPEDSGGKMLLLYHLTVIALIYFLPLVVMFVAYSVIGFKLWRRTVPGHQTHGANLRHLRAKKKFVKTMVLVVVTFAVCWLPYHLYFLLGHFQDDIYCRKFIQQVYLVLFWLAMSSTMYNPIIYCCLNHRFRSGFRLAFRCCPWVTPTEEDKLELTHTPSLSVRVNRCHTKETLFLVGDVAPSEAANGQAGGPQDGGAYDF
Nature of the assay: Binding constant towards Tachykinin receptor 2 using BANK as agonist on rabbit pulmonary artery tissues.

Assay [2] deals with Substance-P receptor (Oryctolagus cuniculus). Nature of the assay: Binding constant towards tachykinin receptor 1 using ASMSP as agonist on rabbit pulmonary artery tissues.
Another assay has as its target Substance-P receptor (Homo sapiens, UniProt P25103). The settings on record: Oryctolagus cuniculus; Artery.
Assay [3] concerns the target T1, Substance-K receptor (Oryctolagus cuniculus). As to the kind of experiment: Binding constant towards Tachykinin receptor 2 using BANK as agonist on rabbit pulmonary artery tissues; NA is not active.

Molecules are shown by their SMILES. Calls of active or inactive are those of the source. The calls are words filed in the database; no cut-off is given here.

In general, pKB refers to the negative decadic logarithm of the KB, by convention in mol/L.

Substance-P receptor, sequence (P25103 whole entry): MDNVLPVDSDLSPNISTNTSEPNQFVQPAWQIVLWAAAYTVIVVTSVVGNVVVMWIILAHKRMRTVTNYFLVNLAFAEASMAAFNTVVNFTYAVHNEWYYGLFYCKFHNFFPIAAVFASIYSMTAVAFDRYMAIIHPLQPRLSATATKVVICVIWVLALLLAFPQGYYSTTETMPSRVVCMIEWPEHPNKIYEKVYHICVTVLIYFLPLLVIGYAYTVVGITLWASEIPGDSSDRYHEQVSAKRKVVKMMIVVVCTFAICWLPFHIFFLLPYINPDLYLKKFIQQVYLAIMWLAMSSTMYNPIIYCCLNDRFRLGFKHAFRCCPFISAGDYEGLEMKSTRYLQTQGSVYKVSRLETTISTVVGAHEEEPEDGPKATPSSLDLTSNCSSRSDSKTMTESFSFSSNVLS

As for `CN(C[C@@H](CCN1CCC(c2ccccc2[S+](C)[O-])CC1)c1ccc(Cl)c(Cl)c1)C(=O)c1cc(C(F)(F)F)cc2ccccc12` (stereo partly drawn), the pKB in assay [1] amounted to 6.45; in assay [2], 7.84.

For the compound `CN(C[C@@H](CCN1CCC(c2ccccc2[S@+](C)[O-])CC1)c1ccc(Cl)c(Cl)c1)C(=O)c1cc(C#N)cc2ccccc12` (stereo in doubt; 4b), the pKB in assay [1] came to 8.39.

Regarding `CN(C[C@@H](CCN1CCC(c2ccccc2[S+](C)[O-])CC1)c1ccc(Cl)c(Cl)c1)C(=O)c1cc(S(C)(=O)=O)cc2ccccc12` (stereo partly drawn), the pKB in assay [1] is 7.35; in assay [2], 7.43.

On to `CN(C[C@@H](CCN1CCC(c2ccccc2[S+](C)[O-])CC1)c1ccc(Cl)c(Cl)c1)C(=O)c1cc(F)cc2ccccc12` (stereo partly drawn), for which the pKB in assay [1] turned out to be 8.15; in assay [2] it was 7.9.

`CN(C[C@@H](CCN1CCC(c2ccccc2[S+](C)[O-])CC1)c1ccc(Cl)c(Cl)c1)C(=O)c1cc(Br)cc2ccccc12` (stereo partly drawn): the values for the pKB in assay [1] and in assay [2] were 7.67 and 8.15, respectively.

`CN(C)C(=O)c1cc(C(=O)N(C)C[C@@H](CCN2CCC(c3ccccc3[S+](C)[O-])CC2)c2ccc(Cl)c(Cl)c2)c2ccccc2c1` (stereo partly drawn): the pKB in assay [1] is 7.31; in assay [2], 5.17.

Turning to `CN(C[C@@H](CCN1CCC(N2CCCNC2=O)CC1)c1ccc(Cl)c(Cl)c1)C(=O)c1cccc2ccccc12`, the pKB in assay [1] worked out at 7.92; in assay [2] it was 7.34.

As to `CC(=O)c1cc(C(=O)N(C)C[C@@H](CCN2CCC(c3ccccc3[S+](C)[O-])CC2)c2ccc(Cl)c(Cl)c2)c2ccccc2c1` (stereo partly drawn), the negative logarithm of the KB (pKB) in assay [1] was found to be 7.17; in assay [2] it was 7.41.

With `CN(C[C@@H](CCN1CCC(c2ccccc2[S+](C)[O-])CC1)c1ccc(Cl)c(Cl)c1)C(=O)c1cc(C(=O)O)cc2ccccc12` (stereo partly drawn), the pKB came out at 6.86 in assay [1] and 5.68 in assay [2].

Take `CN(C[C@@H](CCN1CCC(c2ccccc2S(C)(=O)=O)CC1)c1ccc(Cl)c(Cl)c1)C(=O)c1cccc2ccccc12`: the pKB in assay [1] was determined as 7.55; in assay [2] it was 7.81.

`CN(C[C@H](CCN1CCC(c2ccccc2[S+](C)[O-])CC1)c1ccc(Cl)c(Cl)c1)C(=O)c1cc(C#N)cc2ccccc12` (stereo partly drawn) registered a pKB in assay [1] of 7.1. The pKB result at Substance-P receptor was “inactive”.

For `CN(C[C@@H](CCN1CCC(c2ccccc2[S+](C)[O-])CC1)c1ccc(Cl)c(Cl)c1)C(=O)c1cc(S(N)(=O)=O)cc2ccccc12` (stereo partly drawn), the negative-log KB (pKB) in assay [1] was 7.02; in assay [2] it was 7.54.

Regarding `CNC(=O)C1(N2CCCNC2=O)CCN(CC[C@H](CN(C)C(=O)c2cccc3ccccc23)c2ccc(Cl)c(Cl)c2)CC1`, the pKB stood at 8.41 in assay [1] and 6.82 in assay [2].

Turning to `COc1cc(C(=O)N(C)C[C@@H](CCN2CCC(c3ccccc3[S+](C)[O-])CC2)c2ccc(Cl)c(Cl)c2)c2ccccc2c1` (stereo partly drawn), the results for the pKB in assay [1] and in assay [2] were 7.7 and 7.95, respectively.

As for `CN(C[C@@H](CCN1CCC(c2ccccc2[S+](C)[O-])CC1)c1ccc(Cl)c(Cl)c1)C(=O)c1cc(Cl)cc2ccccc12` (stereo partly drawn), the negative-log KB (pKB) in assay [1] was found to be 7.1; in assay [2], 7.15.

On to `C#Cc1cc(C(=O)N(C)C[C@@H](CCN2CCC(c3ccccc3[S+](C)[O-])CC2)c2ccc(Cl)c(Cl)c2)c2ccccc2c1` (stereo partly drawn), for which the pKB in assay [1] amounted to 7.44; in assay [2], 7.71.

In the case of `CN(C[C@@H](CCN1CCC(c2ccccc2[S+](C)[O-])CC1)c1ccc(Cl)c(Cl)c1)C(=O)c1cccc2ccccc12` (stereo partly drawn), the pKB came to 8.18 in assay [1] and 7.89 in assay [2].

`CN(C[C@@H](CCN1CCC(c2ccccc2C(F)(F)F)CC1)c1ccc(Cl)c(Cl)c1)C(=O)c1cccc2ccccc12`: in assay [3], the pKB entry is “inactive”. The pKB in assay [2] came to 6.03.

`CC(=O)NC1(c2ccccc2)CCN(CC[C@H](CN(C)C(=O)c2ccccc2)c2ccc(Cl)c(Cl)c2)CC1` registered a pKB in assay [1] of 9.3.

Consider `CN(C[C@@H](CCN1CCC(N2C(=O)CCCC2=O)CC1)c1ccc(Cl)c(Cl)c1)C(=O)c1cccc2ccccc12`, for which the pKB entry in assay [3] was “inactive”. This compound showed a pKB in assay [2] of 6.28.

Regarding `C=C(C)c1cc(C(=O)N(C)C[C@@H](CCN2CCC(c3ccccc3[S+](C)[O-])CC2)c2ccc(Cl)c(Cl)c2)c2ccccc2c1` (stereo partly drawn), the pKB in assay [1] and in assay [2] was 7.24 in each case.

For the compound `CN(C[C@@H](CCN1CCC(c2ccccn2)CC1)c1ccc(Cl)c(Cl)c1)C(=O)c1cccc2ccccc12`, in assay [3], the pKB result was “inactive”. In assay [2], this compound showed a negative logarithm of the KB (pKB) of 6.98.

Turning to `CN(C[C@@H](CCN1CCC(c2ccc([S+](C)[O-])cc2)CC1)c1ccc(Cl)c(Cl)c1)C(=O)c1cccc2ccccc12` (stereo partly drawn), the pKB in assay [1] came out at 6.76; in assay [2], 7.4.

Regarding `CN(C[C@@H](CCN1CCC(c2ccccc2[S+](C)[O-])CC1)c1ccc(Cl)c(Cl)c1)C(=O)c1cccc2cc(C#N)ccc12` (stereo partly drawn), the pKB in assay [1] was 7.62; in assay [2] it was 8.55.

`CN(C[C@@H](CCN1CCC(c2ccccc2[S+](C)[O-])CC1)c1ccc(Cl)c(Cl)c1)C(=O)c1cc(CC#N)cc2ccccc12` (stereo partly drawn): the pKB amounted to 6.99 in assay [1] and 8.42 in assay [2].

As for `CN(C[C@@H](CCN1CCC2(CC1)C[S+]([O-])c1ccccc12)c1ccc(Cl)c(Cl)c1)C(=O)c1cccc2ccccc12` (stereo partly drawn), the pKB in assay [1] was determined as 8.1; in assay [2] it was 6.98.

With `Cc1cc(C(=O)N(C)C[C@@H](CCN2CCC(c3ccccc3[S+](C)[O-])CC2)c2ccc(Cl)c(Cl)c2)c2ccccc2c1` (stereo partly drawn), the pKB in assay [1] was determined as 7.29; in assay [2] it was 8.03.

On to `CN(C)C(=O)C1(N2CCCCC2=O)CCN(CC[C@H](CN(C)C(=O)c2cccc3ccccc23)c2ccc(Cl)c(Cl)c2)CC1`, for which the results for the pKB in assay [1] and in assay [2] were 8.23 and 6.78, respectively.

Turning to `CC(=O)NC1(c2ccccc2)CCN(CC[C@H](CN(C)C(=O)c2cccc3ccccc23)c2ccc(Cl)c(Cl)c2)CC1`, the pKB in assay [1] was found to be 8.18; in assay [2] it was 7.18.

For the compound `CN(C[C@@H](CCN1CCC(c2ccccc2[S+](C)[O-])CC1)c1ccc(Cl)c(Cl)c1)C(=O)c1ccc(C#N)c2ccccc12` (stereo partly drawn), the values for the pKB in assay [1] and in assay [2] were 7.34 and 6.31, respectively.

Consider `CN(C[C@@H](CCN1CCC(c2ccccc2[S+](C)[O-])CC1)c1ccc(Cl)c(Cl)c1)C(=O)c1cccc2ccc(C#N)cc12` (stereo partly drawn), for which the pKB in assay [1] came out at 8.51; in assay [2] it was 8.13.

For the compound `CNC(=O)c1ccccc1C1CCN(CC[C@H](CN(C)C(=O)c2cccc3ccccc23)c2ccc(Cl)c(Cl)c2)CC1`, the values for the pKB in assay [1] and in assay [2] were 8.21 and 7.3, respectively.

Consider `CN(C[C@@H](CCN1CCC(c2cccnc2[S+](C)[O-])CC1)c1ccc(Cl)c(Cl)c1)C(=O)c1cccc2ccccc12` (stereo partly drawn), for which the pKB is 7.82 in assay [1] and 7.69 in assay [2].

On to `CN(C[C@@H](CCN1CCC(O)(c2ccccc2[S+](C)[O-])CC1)c1ccc(Cl)c(Cl)c1)C(=O)c1cccc2ccccc12` (stereo partly drawn), for which the results for the pKB in assay [1] and in assay [2] were 7.32 and 7.3, respectively.

On to `CN(C[C@@H](CCN1CCC(O)(c2ccc([S+](C)[O-])cc2)CC1)c1ccc(Cl)c(Cl)c1)C(=O)c1cccc2ccccc12` (stereo partly drawn), for which the figures for the pKB in assay [1] and in assay [2] were 7.54 and 6.92, respectively.

`CCN1C(=O)c2ccccc2[C@H]1[C@@H](CCN1CCC(c2ccccc2[S@+](C)[O-])CC1)c1ccc(Cl)c(Cl)c1` showed a negative-log KB (pKB) in assay [1] of 8.8.

Turning to `CNC(=O)C1(N2CCCCC2=O)CCN(CC[C@H](CN(C)C(=O)c2cccc3ccccc23)c2ccc(Cl)c(Cl)c2)CC1`, the pKB was found to be 8.44 in assay [1] and 6.42 in assay [2].

Turning to `CN(C[C@@H](CCN1CCC(c2ccccc2[S+](C)[O-])CC1)c1ccc(Cl)c(Cl)c1)C(=O)c1cc([N+](=O)[O-])cc2ccccc12` (stereo partly drawn), the pKB in assay [1] is 9.03; in assay [2], 8.16.

These data come from ChEMBL document CHEMBL1133817, “Discovery of novel, orally active dual NK1/NK2 antagonists” (Bioorg Med Chem Lett, 2001).
